Read-outs that look alike come from different tables or passages of the source.
Tests used:
[1] = target: PRC2 complex (EZH2 Y641F/EED/SUZ12/RbAp48/AEBP2) (Homo sapiens (Human), UniProt Q15910, Y641F); assay: Activity of a compound to PRC2 complex (EZH2 Y641F), HTRF
[2] = target: PRC2 complex (EZH2/EED/SUZ12/RbAp48/AEBP2) (Homo sapiens (Human), UniProt Q15910); assay: Activity of a compound to PRC2 complex (EZH2 wild type), ELISA; type: biochemical; conditions: class symbols
[3] = read-out: IC50 (EZH2_Y641F), EZH2 Y641F PRC2 complex, HTRF, class symbols

Chain of PRC2 complex (EZH2/EED/SUZ12/RbAp48/AEBP2) (Q15910 whole entry): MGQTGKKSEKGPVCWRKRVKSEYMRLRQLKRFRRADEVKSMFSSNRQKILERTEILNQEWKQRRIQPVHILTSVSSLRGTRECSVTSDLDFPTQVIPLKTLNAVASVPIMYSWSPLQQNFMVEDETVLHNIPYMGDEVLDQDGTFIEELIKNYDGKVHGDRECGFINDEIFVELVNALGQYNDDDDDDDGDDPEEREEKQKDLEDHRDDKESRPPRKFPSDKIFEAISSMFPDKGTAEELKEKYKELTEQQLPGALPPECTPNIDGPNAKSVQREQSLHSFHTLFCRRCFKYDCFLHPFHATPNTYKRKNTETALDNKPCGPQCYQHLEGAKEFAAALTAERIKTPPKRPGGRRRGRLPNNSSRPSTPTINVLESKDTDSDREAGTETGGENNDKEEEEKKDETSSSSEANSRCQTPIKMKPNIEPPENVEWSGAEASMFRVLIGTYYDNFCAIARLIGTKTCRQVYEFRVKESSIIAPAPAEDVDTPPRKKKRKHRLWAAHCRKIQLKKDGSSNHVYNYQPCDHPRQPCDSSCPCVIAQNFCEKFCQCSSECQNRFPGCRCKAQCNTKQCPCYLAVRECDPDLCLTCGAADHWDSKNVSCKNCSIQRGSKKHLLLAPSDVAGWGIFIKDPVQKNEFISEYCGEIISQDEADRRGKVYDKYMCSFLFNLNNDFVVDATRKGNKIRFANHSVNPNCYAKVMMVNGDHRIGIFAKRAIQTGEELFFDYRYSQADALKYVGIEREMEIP
Chain of PRC2 complex (EZH2/EED/SUZ12/RbAp48/AEBP2) (O75530 whole entry partner): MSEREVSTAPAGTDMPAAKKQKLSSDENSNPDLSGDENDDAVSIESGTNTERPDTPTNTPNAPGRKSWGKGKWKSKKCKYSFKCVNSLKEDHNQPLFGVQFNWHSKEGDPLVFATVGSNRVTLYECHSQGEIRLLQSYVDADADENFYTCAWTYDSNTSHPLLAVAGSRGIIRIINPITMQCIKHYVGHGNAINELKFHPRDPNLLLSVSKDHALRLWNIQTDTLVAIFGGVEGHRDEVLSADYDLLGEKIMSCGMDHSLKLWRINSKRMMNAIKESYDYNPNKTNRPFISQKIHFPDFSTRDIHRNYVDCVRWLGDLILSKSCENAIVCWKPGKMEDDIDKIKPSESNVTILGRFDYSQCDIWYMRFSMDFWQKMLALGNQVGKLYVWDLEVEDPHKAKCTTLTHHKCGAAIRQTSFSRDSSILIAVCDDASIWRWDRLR
Chain of PRC2 complex (EZH2/EED/SUZ12/RbAp48/AEBP2) (Q15022 whole entry partner): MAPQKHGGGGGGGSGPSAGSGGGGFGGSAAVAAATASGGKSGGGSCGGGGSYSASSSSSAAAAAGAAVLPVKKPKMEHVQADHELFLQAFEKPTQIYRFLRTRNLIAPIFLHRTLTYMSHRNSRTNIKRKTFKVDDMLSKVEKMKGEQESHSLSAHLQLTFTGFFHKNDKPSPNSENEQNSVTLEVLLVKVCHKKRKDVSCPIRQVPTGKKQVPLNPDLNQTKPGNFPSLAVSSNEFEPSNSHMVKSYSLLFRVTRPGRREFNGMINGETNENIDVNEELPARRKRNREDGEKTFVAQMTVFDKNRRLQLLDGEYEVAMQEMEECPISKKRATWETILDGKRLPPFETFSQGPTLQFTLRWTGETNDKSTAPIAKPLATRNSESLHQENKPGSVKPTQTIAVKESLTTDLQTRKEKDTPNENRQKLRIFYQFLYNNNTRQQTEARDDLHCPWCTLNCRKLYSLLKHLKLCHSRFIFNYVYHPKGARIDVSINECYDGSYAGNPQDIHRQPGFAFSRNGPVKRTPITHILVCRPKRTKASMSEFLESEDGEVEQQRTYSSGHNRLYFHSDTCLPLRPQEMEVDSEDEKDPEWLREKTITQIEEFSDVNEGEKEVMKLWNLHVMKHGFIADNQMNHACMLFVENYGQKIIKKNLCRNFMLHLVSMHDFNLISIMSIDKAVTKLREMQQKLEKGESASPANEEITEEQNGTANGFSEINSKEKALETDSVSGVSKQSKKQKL
Chain of PRC2 complex (EZH2/EED/SUZ12/RbAp48/AEBP2) (Q09028 whole entry partner): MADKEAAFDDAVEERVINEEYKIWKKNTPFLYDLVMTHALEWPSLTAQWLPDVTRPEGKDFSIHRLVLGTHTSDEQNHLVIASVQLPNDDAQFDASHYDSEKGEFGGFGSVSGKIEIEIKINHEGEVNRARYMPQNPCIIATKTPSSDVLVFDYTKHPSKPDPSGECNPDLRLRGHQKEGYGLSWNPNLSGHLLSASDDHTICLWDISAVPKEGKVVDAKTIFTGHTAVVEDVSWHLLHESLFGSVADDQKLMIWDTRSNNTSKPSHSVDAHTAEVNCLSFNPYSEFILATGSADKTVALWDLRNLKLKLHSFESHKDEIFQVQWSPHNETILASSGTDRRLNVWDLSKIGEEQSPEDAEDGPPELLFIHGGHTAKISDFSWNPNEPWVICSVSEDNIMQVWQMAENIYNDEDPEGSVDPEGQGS
Chain of PRC2 complex (EZH2/EED/SUZ12/RbAp48/AEBP2) (Q6ZN18 whole entry partner): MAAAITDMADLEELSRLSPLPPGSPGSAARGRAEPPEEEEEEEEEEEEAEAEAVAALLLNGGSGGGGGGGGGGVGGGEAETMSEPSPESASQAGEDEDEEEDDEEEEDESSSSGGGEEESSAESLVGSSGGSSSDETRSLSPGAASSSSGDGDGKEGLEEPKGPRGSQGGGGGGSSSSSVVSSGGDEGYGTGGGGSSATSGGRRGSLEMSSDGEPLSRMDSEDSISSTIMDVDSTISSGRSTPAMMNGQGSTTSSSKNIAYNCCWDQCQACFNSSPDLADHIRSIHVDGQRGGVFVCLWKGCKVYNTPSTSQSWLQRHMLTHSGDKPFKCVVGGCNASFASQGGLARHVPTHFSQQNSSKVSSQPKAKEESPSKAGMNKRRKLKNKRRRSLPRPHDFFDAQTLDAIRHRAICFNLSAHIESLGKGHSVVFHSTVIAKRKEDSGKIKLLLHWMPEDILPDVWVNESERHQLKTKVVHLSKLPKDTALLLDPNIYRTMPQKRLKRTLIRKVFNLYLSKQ
Chain of PRC2 complex (EZH2 Y641F/EED/SUZ12/RbAp48/AEBP2) (Q15910 whole entry Y641F): as the sequence (Q15910 whole entry) above, with Y641F counted along it
Chain of PRC2 complex (EZH2 Y641F/EED/SUZ12/RbAp48/AEBP2) (O75530 whole entry partner): as the sequence (O75530 whole entry partner) above
Chain of PRC2 complex (EZH2 Y641F/EED/SUZ12/RbAp48/AEBP2) (Q15022 whole entry partner): as the sequence (Q15022 whole entry partner) above
Chain of PRC2 complex (EZH2 Y641F/EED/SUZ12/RbAp48/AEBP2) (Q09028 whole entry partner): as the sequence (Q09028 whole entry partner) above
Chain of PRC2 complex (EZH2 Y641F/EED/SUZ12/RbAp48/AEBP2) (Q6ZN18 whole entry partner): as the sequence (Q6ZN18 whole entry partner) above

| IC50 [1, 3] | IC50 [2] | IC50 [1] | SMILES |
| --- | --- | --- | --- |
| 100 to 1000 nM | 100 to 1000 nM |  | Cc1cc(C)c(CNC(=O)c2cc3cccn3c(C(C)OCc3cccc(F)c3)c2C)c(=O)[nH]1 (stereo not drawn) [Example 12] |
|  | < 100 nM | < 100 nM | Cc1cc(C)c(CNC(=O)c2cc3c(-c4ccc(N)nc4)ccn3c(C(C)N3CCN(CC(F)(F)F)CC3)c2C)c(=O)[nH]1 (stereo not drawn) [Compound 158, 1-(6-aminopyridin-3-yl)-N-((4,6-dimethyl-2-oxo-1,2-dihydropyridin-3-yl)methyl)-6-methyl-5-(1-(4-(2,2,2-trifluoroethyl)piperazin-1-yl)ethyl)indolizine-7-carboxamide] |
| < 100 nM | 100 to 1000 nM |  | Cc1cc(C)c(CNC(=O)c2cc3cccn3c(C(C)OCc3nccs3)c2C)c(=O)[nH]1 (stereo not drawn) [Example 18, N-((4,6-dimethyl-2-oxo-1,2-dihydropyridin-3-yl)methyl)-6-methyl-5-(1-(thiazole-2-ylmethoxy)ethyl)indolizine-7-carboxamide] |
| 100 to 1000 nM | 100 to 1000 nM |  | Cc1cc(C)c(CNC(=O)c2cc3cccn3c(C(C)OCc3ccc(F)cc3)c2C)c(=O)[nH]1 (stereo not drawn) [Example 10] |
| 100 to 1000 nM | 100 to 1000 nM |  | COc1cccc(COC(C)c2c(C)c(C(=O)NCc3c(C)cc(C)[nH]c3=O)cc3cccn23)c1 (stereo not drawn) [Example 14, N-((4,6-dimethyl-2-oxo-1,2-dihydropyridin-3-yl)methyl)-5-(1-((3-methoxybenzyl)oxy)ethyl)-6-methylindolizine-7-carboxamide] |
| 100 to 1000 nM | 100 to 1000 nM |  | Cc1cc(C)c(CNC(=O)c2cc3cccn3c(C(C)OCc3c(F)cccc3F)c2C)c(=O)[nH]1 (stereo not drawn) [Example 13] |
| 100 to 1000 nM | < 100 nM |  | Cc1cc(C)c(CNC(=O)c2cc3cccn3c(C(C)c3ccccc3)c2C)c(=O)[nH]1 (stereo not drawn) [Example 25, N-((4,6-dimethyl-2-oxo-1,2-dihydropyridin-3-yl)methyl)-6-methyl-5-(1-phenylethyl)indolizine-7-carboxamide] |
| < 100 nM | < 100 nM |  | Cc1cc(C)c(CNC(=O)c2cc3c(-c4ccc(N)nc4)ccn3c([C@H](C)N3CCN(CC(F)(F)F)CC3)c2C)c(=O)[nH]1 (single isomer, unassigned) [Compound 159, (S)-1-(6-aminopyridin-3-yl)-N-((4,6-dimethyl-2-oxo-1,2-dihydropyridin-3-yl)methyl)-6-methyl-5-(1-(4-(2,2,2-trifluoroethyl)piperazin-1-yl)ethyl)indolizine-7-carboxamide or (R) 1-(6-aminopyridin-3-yl)-N-((4,6-dimethyl-2-oxo-1,2-dihydropyridin-3-yl)methyl)-6-methyl-5-(1-(4-(2,2,2-trifluoroethyl)piperazin-1-yl)ethyl)indolizine-7-carboxamide] |

| SMILES | IC50 [1, 3] | IC50 [2] | IC50 [1] |
| --- | --- | --- | --- |
| Cc1cc(C)c(CNC(=O)c2cc3cccn3c(N(C)C3CCOCC3)c2C)c(=O)[nH]1 [Example 55, N-((4,6-dimethyl-2-oxo-1,2-dihydropyridin-3-yl)methyl)-6-methyl-5-(methyl(tetrahydro-2H-pyran-4-yl)amino)indolizine-7-carboxamide] | 100 to 1000 nM | 100 to 1000 nM |  |
